The source of these data is patent US20230339977A1, “SUBSTITUTED HETEROARYL COMPOUND, AND COMPOSITION AND APPLICATION THEREOF” (SUNSHINE LAKE PHARMA CO., LTD., priority 2020, published 2023).

Read-outs that look alike come from different tables or passages of the source.

Data set [1] can be described thus: Stability in human liver microsomes. It counts as in vitro ADME. As to the method:
(§1) The stability of the compounds of the present invention in human and rat liver microsomes can be tested by the following two methods:
(§2) Human or rat liver microsomes were incubated in polypropylene tubes in duplicate wells. A typical incubation mixture included human or rat liver microsomes (0.5 mg protein/mL), target compound (5 µM), and a total volume of 200 µL of NADPH (1.0 mM) potassium phosphate buffer (PBS, 100 mM, pH 7.4), the compound was dissolved in DMSO and diluted with PBS, the final concentration of the DMSO solution was 0.05%. Human or rat liver microsomes were incubated at 37° C. in an air-connected water bath. After pre-incubation for 3 minutes, […] was added to start the reaction. The same volume of ice-cold acetonitrile was added to terminate the reaction at different time points (0, 5, 10, 15, 30 and 60 min). Samples were stored at -80° C. until LC/MS/MS analysis.
(§3) The linear concentration range of each target compound was determined, and then, the concentration of the target compounds in the human or rat liver microsomes incubation mixture was determined by LC/MS/MS method.
(§4) Parallel incubations were performed using denatured microsomes as a negative control and dextromethorphan (70 µM) as a positive control. Negative control was incubated at 37° C., the reaction was terminated at different time points (0, 15 and 60 minutes); positive control was incubated at 37° C., the reaction was terminated at different time points (0, 5, 10, 15, 30 and 60 minutes). Positive and negative control samples were used in each assay to ensure the integrity of the microsomal incubation system.
(§5) In addition, the stability data of the compounds of the present invention in human or rat liver microsomes can also be obtained from the following tests:
(§6) Human or rat liver microsomes were incubated in polypropylene tubes in duplicate wells. A typical incubation mixture included human or rat liver microsomes (final concentration: 0.5 mg protein/mL), target compound (final concentration: 1.5 µM) and a total volume of 30 µL of K-buffer solution (containing 1.0 mM EDTA, 100 mM, pH 7.4). Compounds were dissolved in DMSO and diluted with K-buffer solution, the final concentration of DMSO was 0.2%. […]
(§7) For each reaction, in vivo intrinsic hepatic clearance CLint is extrapolated by plotting the compound concentration (expressed as a percentage) in human or rat liver microsomal incubations as a percentage relative to time zero (ref.: Naritomi Y, Terashita S, Kimura S, Suzuki A, Kagayama A, Sugiyama Y. Prediction of human hepatic clearance from in vivo animal experiments and in vitro metabolic studies with liver microsomes from animals and humans. Drug Metabolism and Disposition 2001, 29: 1316-1324.).

A short description of data set [2]: Stability in rat liver microsomes. In kind it is in vitro ADME. On the procedure:
as §1, §2, §3, §4, §5, §6, §7

A short description of data set [3]: Pharmacokinetic evaluation in rats after intravenous injection and oral administration. To be noted: rat, plasma; for AUC(0-t): read-out: PK AUClast; for Cmax: read-out: PK Cmax; for half-life: read-out: PK T½ (converted). In kind it is in vivo. On the procedure: The analytical LC/MS/MS system includes an Agilent 1200 series vacuum degasser, a binary syringe pump, an orifice plate autosampler, a column oven, and an Agilent G6430 triple quadrupole mass spectrometer with an electrospray ionization (ESI) source.
Agilent XDB-C18, 2.1 × 30 mm, 3.5 µM column was used to analysis, 5 µL sample was injected. Analytical conditions: Mobile phases were 0.1% formic acid in water (A) and 0.1% formic acid in methanol (B). The flow rate was 0.4 mL/min.
In addition, Agilent 6330 series LC/MS/MS spectrometer was used for analysis, equipped with G1312A binary syringe pump, G1367A automatic sampler and G1314C UV detector; LC/MS/MS spectrometer used ESI radiation source. Optimum analysis was achieved using standards with appropriate cation model processing and MRM conversion for each analyte. A Capcell MP-C18 column, 100 × 4.6 mm I.D., 5 µM (Phenomenex, Torrance, California, USA) was used during the analysis. Mobile phase was 5 mM ammonium acetate, 0.1% methanol in water (A): 5 mM ammonium acetate, 0.1% methanol in acetonitrile (B) (70/30, v/v); flow rate was 0.6 mL/min; column temperature was maintained at room temperature; 20 µL of sample was injected.
The present invention evaluates the pharmacokinetic studies of the compounds of the present invention in mice, rats, dogs or monkeys. The compounds of the present invention were administered in the form of aqueous solution or 2% HPMC + 1% Tween-80 aqueous solution, 5% DMSO + 5% saline solution, 4% MC or capsule. For intravenous administration, animals were dosed at about 0.5, 0.6, 1 or 2 mg/kg. The oral doses (p.o.) were 5 or 10 mg/kg for rats and mice, and 10 mg/kg for dogs and monkeys. Bloods (0.3 mL) were taken at time points 0.25, 0.5, 1.0, 2.0, 3.0, 4.0, 6.0, 8.0, 12 and 24 h and centrifuged at 3,000 or 4,000 rpm for 10 min. Plasma solutions were collected and stored at -20° C. or -70° C. until LC/MS/MS analysis as described above. […] Table 2 is the experimental results of the pharmacokinetic characteristics of the compounds provided in the examples of the present invention in rats.

Data set [4] concerns JAK2/TYK2. The experiment in a line: Cell level activity test of JAK2/TYK2 (IL-12 mediated IFNγ expression in NK92 cells). The conditions noted are these: NK92, 24 h, IFNγ in supernatant by ELISA, NK92 cells with IL-12, 24 h. In kind it is cell-based. From the text: TYK2 belongs to the JAK family, and can accept the ligand acting on the coupled receptor signal to regulate downstream signal activator of transcription (STAT) phosphorylation. Phosphorylation of STAT can regulate the expression of downstream related genes, leading to changes in physiological functions such as cell proliferation and differentiation. IL-12 mediates IFNγ expression in NK92 cells through JAK2/TYK2.
Therefore, by inhibiting TYK2 activity, inhibition of this cascade pathway leads to a decrease in IFNγ expression. However, IL-2 can induce NK92 proliferation and produce IFNγ through receptor-coupled […], so the influence of IL-2 needs to be ruled out. In this experiment, the activity of compounds on JAK2/TYK2 was evaluated by detecting the expression of IFNγ at various compound concentrations.
The test compound was dissolved in DMSO, prepared into a 20 mM stock solution, and stored at -20° C. for future use. The mother solution was diluted 10 times with DMSO to make a 2 mM solution, then diluted with medium to an initial concentration of […], and then diluted 3-fold with medium containing 5% DMSO to obtain a prepared concentration gradient of […], 33333.3 nM, 11111.1 nM, 3703.70 nM, 1234.57 nM, 411.523 nM, 137.174 nM, 45.7247 nM, 15.2416 nM; 10 ul of the above-mentioned concentration of drugs were added into a 96-well plate to obtain the final concentrations of […], 3333.3 nM, 1111.1 nM, 370.4 nM, 123.5 nM, 41.1 nM, 13.7 nM, 4.6 nM, 1.52 nM;
NK92 cells were resuscitated and cultured, 16 h before the experiment, the medium was replaced with interleukin-free medium. The mixture was centrifuged and IL-12 medium was added to resuspend the cells, seeded 95 ul in a 96-well plate at a density of 20,000 cells/well, 10 ul of the above gradual dilution was added and incubated for 24 h, centrifuged to take the supernatant, diluted 3-fold with pure water, and the IFNγ concentration of the supernatant was detected by ELISA, the IC50 value was calculated.

Where [5] appears, read: pH 7.4, in vivo intrinsic hepatic clearance extrapolated.

As for `COc1cc(-c2cn(C)c3cnc(NC(C)=O)cc23)nc2c1COC21CCOC1` (centres unmarked) [Example 1, N-(3-(4′-methoxy-4,5-dihydro-2H,5′H-spiro[furan-3,7′-furo[3,4-b]pyridin]-2′ -yl)-1-methyl-1H-pyrrolo[2,3-c]pyridin-5-yl)acetamide], the half-life in data set [1] (human, pH 7.4, read-out: Human T½) is 1.92 h; in data set [2] (rat, pH 7.4, read-out: Rat T½) it was 2.56 h; in data set [3] (IV 1 mg/kg), 1.24 h; in data set [3] (PO 5 mg/kg), 3.11 h. In addition, the CLint scaled in data set [1] (setting [5]) is 15.1 mL/min/kg; in data set [2] (setting [5]), 16.2 mL/min/kg. In addition, the AUC(0-t) in data set [3] (IV 1 mg/kg) is 1650 ng·h/mL; in data set [3] (PO 5 mg/kg), 8810 ng·h/mL. Besides, the Cmax came out at 1170 ng/mL in data set [3] (IV 1 mg/kg) and 2650 ng/mL in data set [3] (PO 5 mg/kg). Further, in data set [3] (oral bioavailability, PO 5 mg/kg), the bioavailability came out at 107%.

`CC(=O)Nc1cc2c(-c3cc(NCCC(C)(C)O)c4c(n3)C3(CCOC3)OCC4)cn(C)c2cn1` (centres unmarked) [Example 48, N-(3-(4′-((3-Hydroxy-3-Methylbutyl)Amino)-4,5,5′,6′-Tetrahydro-2H-Spiro[Furan-3,8′-Pyrano[3,4-b]Pyridin]-2′-yl)-1-Methyl-1H-Pyrrolo[2,3-c]Pyridin-5-yl)Acetamide] displayed an IC50 in data set [4] of 115 nM.

In the case of `CC(=O)Nc1cc2c(-c3cc(OCCC(C)(C)O)c4c(n3)C3(CCOC3)OCC4)cn(C3COC3)c2cn1` (centres unmarked) [Example 49, N-(3-(4′-(3-Hydroxy-3-Methylbutoxy)-4,5,5′,6′-Tetrahydro-2H-Spiro[Furan-3, 8′-Pyrano[3,4-b]Pyridin]-2′-yl)-1-(Oxetan-3-yl)-1H-Pyrrolo[2,3-c]Pyridin-5-yl)Acetamide], it took 68.1 nM to reach half-maximal inhibition in data set [4] (IC50).

`CC(=O)Nc1cc2c(-c3cc(OCCC(C)(C)O)c4c(n3)C3(CCOC3)OCC4)cn(C(C)C)c2cn1` (centres unmarked) [Example 50, N-(3-(4′-(3-Hydroxy-3-Methylbutoxy)-4,5,5′,6′-Tetrahydro-2H-Spiro[Furan-3, 8′-Pyrano[3,4-b]Pyridin]-2′-yl)-1-Isopropyl-1H-Pyrrolo[2,3-c]Pyridin-5-yl)Acetamide]: the midpoint of inhibition in data set [4], the IC50, lay at 47 nM.
